# Test results as given in BindingDB's records for doi:10.1021/jm020940p (University of Innsbruck, 2002).
# Key:
# [1] = The ability of compound to inhibit [35S][…] binding in guinea pig caudate stimulated by SNC80 (Opioid receptor delta 1) antagonist
# [2] = The ability of compound to inhibit [35S][…] binding in guinea pig caudate stimulated by SNC80
smiles,measurement,setting,value
CCO[C@@]12Cc3c(oc4ccccc34)[C@@H]3Oc4c(O)ccc5c4[C@@]31CCN(CC1CC1)[C@@H]2C5,Ki,[1],0.88 nM
C=CCN1CC[C@]23c4c5ccc(O)c4O[C@H]2c2[nH]c4ccccc4c2C[C@@]3(OCC)[C@H]1C5,Ki,[2],1 nM
"CCO[C@@]12Cc3c([nH]c4ccccc34)[C@]3(C)Oc4c(O)ccc5c4C31CCN(CC1CC1)C2C5 (stereo partly drawn) [22-cyclopropylmethyl-2-ethoxy-13-methyl-(2S,13R)-14-oxa-11,22-diazaheptacyclo[13.9.1.01,13.02,21.04,12.05,10.019,25]pentacosa-4(12),5(10),6,8,15,17,19(25)-heptaen-16-ol]",Ki,[1],0.96 nM
